Target: MDM2 (Homo sapiens, UniProt Q00987)
Experiment: MDM2 binding screen of Libraries 3 and 4: displacement of fluorescent probe F-M8 at 750 nM macrocycle
Conditions: Panel b, Library 3: 63 scaffolds combinatorially acylated with 15 carboxylic acids at 30 picomole scale; displacement of fluorescent peptide probe; macrocycle 750 nM
Method in brief: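 Cyclic peptide scaffolds were acylated in DMSO with carboxylic acids (20 equiv.), HBTU and DABCO for 6 h at room temperature. Reactions were quenched overnight in 100 mM Tris-Cl pH 7.4, 0.01% Tween20. The fluorescein conjugate was also competed with nutlin-3a.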

Sequence of MDM2 (Q00987 whole entry): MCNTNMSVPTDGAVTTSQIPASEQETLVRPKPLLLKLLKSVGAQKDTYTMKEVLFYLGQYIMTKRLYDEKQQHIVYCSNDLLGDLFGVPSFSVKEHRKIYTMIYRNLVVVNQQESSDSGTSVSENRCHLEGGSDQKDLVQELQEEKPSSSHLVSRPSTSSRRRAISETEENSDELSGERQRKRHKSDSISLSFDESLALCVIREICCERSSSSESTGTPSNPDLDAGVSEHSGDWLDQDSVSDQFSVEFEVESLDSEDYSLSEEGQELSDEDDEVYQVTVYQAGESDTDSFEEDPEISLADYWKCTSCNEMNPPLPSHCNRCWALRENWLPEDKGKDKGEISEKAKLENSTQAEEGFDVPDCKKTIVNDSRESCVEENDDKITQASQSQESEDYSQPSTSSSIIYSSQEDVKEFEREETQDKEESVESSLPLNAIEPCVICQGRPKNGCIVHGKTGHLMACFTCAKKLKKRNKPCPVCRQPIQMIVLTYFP

Compound	fraction of fluorescent probe displaced
O=C(NC[C@@H]1NC(=O)[C@H]2CCCN(C2)C(=O)CCSSCCNC(=O)[C@H](Cc2c[nH]c3cc(Cl)ccc23)NC1=O)c1ccc(Cl)s1 [X-Nip-Dap-Cl-Trp + Acid 14]	0.181
O=C(NC[C@@H]1NC(=O)[C@H]2CCCN(C2)C(=O)CCSSCCNC(=O)[C@H](Cc2c[nH]c3cc(Cl)ccc23)NC1=O)c1ccc2ccccc2c1 [X-Nip-Dap-Cl-Trp + Acid 107]	0.232
O=C(/C=C/c1ccc(Cl)cc1)NC[C@@H]1NC(=O)[C@H]2CCCN(C2)C(=O)CCSSCCNC(=O)[C@H](Cc2c[nH]c3cc(Cl)ccc23)NC1=O [X-Nip-Dap-Cl-Trp + Acid 108]	0.108
O=C(NC[C@@H]1NC(=O)[C@H]2CCCN(C2)C(=O)CCSSCCNC(=O)[C@H](Cc2c[nH]c3cc(Cl)ccc23)NC1=O)c1cccc(Oc2ccccc2)c1 [X-Nip-Dap-Cl-Trp + Acid 111]	0.075
O=C(/C=C/c1ccc2ccccc2c1)NC[C@@H]1NC(=O)[C@H]2CCCN(C2)C(=O)CCSSCCNC(=O)[C@H](Cc2c[nH]c3cc(Cl)ccc23)NC1=O [X-Nip-Dap-Cl-Trp + Acid 112]	0.221
CC(Oc1cccc(Cl)c1)C(=O)NC[C@@H]1NC(=O)[C@H]2CCCN(C2)C(=O)CCSSCCNC(=O)[C@H](Cc2c[nH]c3cc(Cl)ccc23)NC1=O (stereo partly drawn) [X-Nip-Dap-Cl-Trp + Acid 113]	0.008
O=C(CCS(=O)(=O)c1ccccc1)NC[C@@H]1NC(=O)[C@H]2CCCN(C2)C(=O)CCSSCCNC(=O)[C@H](Cc2c[nH]c3cc(Cl)ccc23)NC1=O [X-Nip-Dap-Cl-Trp + Acid 114]	-0.012
O=C(NC[C@@H]1NC(=O)[C@H]2CCCN(C2)C(=O)CCSSCCNC(=O)[C@@H](Cc2c[nH]c3ccccc23)NC1=O)c1ccc(Cl)s1 [X-Nip-Dap-D-Trp + Acid 14]	-0.172
O=C(NC[C@@H]1NC(=O)[C@H]2CCCN(C2)C(=O)CCSSCCNC(=O)[C@@H](Cc2c[nH]c3ccccc23)NC1=O)c1ccc(Cl)cc1 [X-Nip-Dap-D-Trp + Acid 25]	-0.045
O=C(/C=C/c1ccncc1)NC[C@@H]1NC(=O)[C@H]2CCCN(C2)C(=O)CCSSCCNC(=O)[C@@H](Cc2c[nH]c3ccccc23)NC1=O [X-Nip-Dap-D-Trp + Acid 106]	-0.015
O=C(NC[C@@H]1NC(=O)[C@H]2CCCN(C2)C(=O)CCSSCCNC(=O)[C@@H](Cc2c[nH]c3ccccc23)NC1=O)c1ccc2ccccc2c1 [X-Nip-Dap-D-Trp + Acid 107]	0.044
O=C(/C=C/c1ccc(OCc2ccccc2)cc1)NC[C@@H]1NC(=O)[C@H]2CCCN(C2)C(=O)CCSSCCNC(=O)[C@@H](Cc2c[nH]c3ccccc23)NC1=O [X-Nip-Dap-D-Trp + Acid 110]	0.00133
O=C(/C=C/c1ccc2ccccc2c1)NC[C@@H]1NC(=O)[C@H]2CCCN(C2)C(=O)CCSSCCNC(=O)[C@@H](Cc2c[nH]c3ccccc23)NC1=O [X-Nip-Dap-D-Trp + Acid 112]	0.021
CC(Oc1cccc(Cl)c1)C(=O)NC[C@@H]1NC(=O)[C@H]2CCCN(C2)C(=O)CCSSCCNC(=O)[C@@H](Cc2c[nH]c3ccccc23)NC1=O (stereo partly drawn) [X-Nip-Dap-D-Trp + Acid 113]	-0.00533
O=C(CCS(=O)(=O)c1ccccc1)NC[C@@H]1NC(=O)[C@H]2CCCN(C2)C(=O)CCSSCCNC(=O)[C@@H](Cc2c[nH]c3ccccc23)NC1=O [X-Nip-Dap-D-Trp + Acid 114]	0.00133
Cn1cc(C[C@@H]2NC(=O)[C@H](CNC(=O)c3ccc(Cl)s3)NC(=O)[C@H]3CCCN(C3)C(=O)CCSSCCNC2=O)c2ccccc21 [X-Nip-Dap-Me-Trp + Acid 14]	0.028
Cn1cc(C[C@@H]2NC(=O)[C@H](CNC(=O)c3ccc4ccccc4c3)NC(=O)[C@H]3CCCN(C3)C(=O)CCSSCCNC2=O)c2ccccc21 [X-Nip-Dap-Me-Trp + Acid 107]	0.076
Cn1cc(C[C@@H]2NC(=O)[C@H](CNC(=O)/C=C/c3ccc(Cl)cc3)NC(=O)[C@H]3CCCN(C3)C(=O)CCSSCCNC2=O)c2ccccc21 [X-Nip-Dap-Me-Trp + Acid 108]	0.075
Cn1cc(C[C@@H]2NC(=O)[C@H](CNC(=O)/C=C/c3ccc4ccccc4c3)NC(=O)[C@H]3CCCN(C3)C(=O)CCSSCCNC2=O)c2ccccc21 [X-Nip-Dap-Me-Trp + Acid 112]	0.188
Cn1cc(C[C@@H]2NC(=O)[C@H](CNC(=O)CCS(=O)(=O)c3ccccc3)NC(=O)[C@H]3CCCN(C3)C(=O)CCSSCCNC2=O)c2ccccc21 [X-Nip-Dap-Me-Trp + Acid 114]	-0.00533
Cn1cc(C[C@@H]2NC(=O)[C@H](CNC(=O)C3COc4ccccc4O3)NC(=O)[C@H]3CCCN(C3)C(=O)CCSSCCNC2=O)c2ccccc21 (stereo partly drawn) [X-Nip-Dap-Me-Trp + Acid 115]	0.028
CN1C(=O)[C@H](CNC(=O)c2ccc(Cl)cc2)NC(=O)[C@H]2CCCN(C2)C(=O)CCSSCCNC(=O)[C@@H]1Cc1c[nH]c2ccccc12 [X-Nip-Dap-NMe-Trp + Acid 25]	0.00133
CN1C(=O)[C@H](CNC(=O)/C=C/c2ccncc2)NC(=O)[C@H]2CCCN(C2)C(=O)CCSSCCNC(=O)[C@@H]1Cc1c[nH]c2ccccc12 [X-Nip-Dap-NMe-Trp + Acid 106]	-0.021
CN1C(=O)[C@H](CNC(=O)c2ccc3ccccc3c2)NC(=O)[C@H]2CCCN(C2)C(=O)CCSSCCNC(=O)[C@@H]1Cc1c[nH]c2ccccc12 [X-Nip-Dap-NMe-Trp + Acid 107]	0.031
CN1C(=O)[C@H](CNC(=O)/C=C/c2ccc(Cl)cc2)NC(=O)[C@H]2CCCN(C2)C(=O)CCSSCCNC(=O)[C@@H]1Cc1c[nH]c2ccccc12 [X-Nip-Dap-NMe-Trp + Acid 108]	0.00133

Same assay, conditions: Panel c, Library 4: best nine scaffolds and 15 additional carboxylic acids; displacement of fluorescent probe

Compound	fraction of fluorescent probe displaced
CC(C)c1ccc(/C=C/C(=O)NC[C@@H]2NC(=O)[C@H]3CCCN(C3)C(=O)CCSSCCNC(=O)[C@H](Cc3ccc4ccccc4c3)NC2=O)cc1 [X-Nip-Dap-2-Nal + Acid 127]	-0.021
O=C(NC[C@@H]1NC(=O)[C@H]2CCCN(C2)C(=O)CCSSCCNC(=O)[C@H](Cc2ccc3ccccc3c2)NC1=O)c1cnc2ccccc2n1 [X-Nip-Dap-2-Nal + Acid 130]	0.0035
O=C(/C=C/c1ccc(F)cc1)NC[C@@H]1NC(=O)[C@H]2CCCN(C2)C(=O)CCSSCCNC(=O)[C@H](Cc2c[nH]c3cc(Cl)ccc23)NC1=O [X-Nip-Dap-Cl-Trp + Acid 116]	0.289
CCOc1ccc(/C=C/C(=O)NC[C@@H]2NC(=O)[C@H]3CCCN(C3)C(=O)CCSSCCNC(=O)[C@H](Cc3c[nH]c4cc(Cl)ccc34)NC2=O)cc1 [X-Nip-Dap-Cl-Trp + Acid 117]	0.207
O=C(/C=C/c1ccc(Cl)c(Cl)c1)NC[C@@H]1NC(=O)[C@H]2CCCN(C2)C(=O)CCSSCCNC(=O)[C@H](Cc2c[nH]c3cc(Cl)ccc23)NC1=O [X-Nip-Dap-Cl-Trp + Acid 119]	0.134
O=C(/C=C/c1cccc(Cl)c1)NC[C@@H]1NC(=O)[C@H]2CCCN(C2)C(=O)CCSSCCNC(=O)[C@H](Cc2c[nH]c3cc(Cl)ccc23)NC1=O [X-Nip-Dap-Cl-Trp + Acid 121]	0.207
O=C(/C=C/c1cccc(C(F)(F)F)c1)NC[C@@H]1NC(=O)[C@H]2CCCN(C2)C(=O)CCSSCCNC(=O)[C@H](Cc2c[nH]c3cc(Cl)ccc23)NC1=O [X-Nip-Dap-Cl-Trp + Acid 122]	0.166
CC(C)c1ccc(/C=C/C(=O)NC[C@@H]2NC(=O)[C@H]3CCCN(C3)C(=O)CCSSCCNC(=O)[C@H](Cc3c[nH]c4cc(Cl)ccc34)NC2=O)cc1 [X-Nip-Dap-Cl-Trp + Acid 127]	0.109
O=C(NC[C@@H]1NC(=O)[C@H]2CCCN(C2)C(=O)CCSSCCNC(=O)[C@H](Cc2c[nH]c3cc(Cl)ccc23)NC1=O)c1cnc2ccccc2n1 [X-Nip-Dap-Cl-Trp + Acid 130]	0.044
Cn1cc(C[C@@H]2NC(=O)[C@H](CNC(=O)/C=C/c3ccc(F)cc3)NC(=O)[C@H]3CCCN(C3)C(=O)CCSSCCNC2=O)c2ccccc21 [X-Nip-Dap-Me-Trp + Acid 116]	0.052
Cn1cc(C[C@@H]2NC(=O)[C@H](CNC(=O)/C=C/c3ccc(Cl)c(Cl)c3)NC(=O)[C@H]3CCCN(C3)C(=O)CCSSCCNC2=O)c2ccccc21 [X-Nip-Dap-Me-Trp + Acid 119]	0.085
Cn1cc(C[C@@H]2NC(=O)[C@H](CNC(=O)/C=C/c3cccc(Cl)c3)NC(=O)[C@H]3CCCN(C3)C(=O)CCSSCCNC2=O)c2ccccc21 [X-Nip-Dap-Me-Trp + Acid 121]	0.118
Cn1cc(C[C@@H]2NC(=O)[C@H](CNC(=O)/C=C/c3cccc(C(F)(F)F)c3)NC(=O)[C@H]3CCCN(C3)C(=O)CCSSCCNC2=O)c2ccccc21 [X-Nip-Dap-Me-Trp + Acid 122]	0.101
CC(C)c1ccc(/C=C/C(=O)NC[C@@H]2NC(=O)[C@H]3CCCN(C3)C(=O)CCSSCCNC(=O)[C@H](Cc3cn(C)c4ccccc34)NC2=O)cc1 [X-Nip-Dap-Me-Trp + Acid 127]	0.028
Cn1cc(C[C@@H]2NC(=O)[C@H](CNC(=O)c3cnc4ccccc4n3)NC(=O)[C@H]3CCCN(C3)C(=O)CCSSCCNC2=O)c2ccccc21 [X-Nip-Dap-Me-Trp + Acid 130]	-0.00464

Source: PMC9250534, “Synthesis and direct assay of large macrocycle diversities by combinatorial late-stage modification at picomole scale” (Nature Communications, 2022)
